{"source": "paper PMC2891776", "about": "(Journal of medicinal chemistry, 2010)", "key": {"hASBT [1]": {"target": "T1, hASBT (Homo sapiens, UniProt Q12908)", "T1 sequence (Q12908 1-348)": "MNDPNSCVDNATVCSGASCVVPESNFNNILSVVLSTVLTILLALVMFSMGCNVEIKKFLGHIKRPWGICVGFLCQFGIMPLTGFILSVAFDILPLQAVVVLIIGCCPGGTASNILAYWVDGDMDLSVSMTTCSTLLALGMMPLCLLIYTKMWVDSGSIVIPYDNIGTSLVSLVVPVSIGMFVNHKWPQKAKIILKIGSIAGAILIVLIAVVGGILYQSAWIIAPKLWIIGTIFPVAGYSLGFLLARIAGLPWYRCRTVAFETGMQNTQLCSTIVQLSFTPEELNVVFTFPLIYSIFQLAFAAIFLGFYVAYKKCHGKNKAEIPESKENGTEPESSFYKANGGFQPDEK", "test": "Inhibition of taurocholate uptake in hASBT-MDCK monolayers", "assay_type": "cell-based", "settings": "for fold more potent than 33: ratio of Ki relative to 33"}, "hASBT [2]": {"target": "T1, hASBT", "settings": "previously reported; cited from earlier work"}}, "data": [{"molecule": "C[C@H](CCC(=O)N[C@@H](CCC(=O)Nc1cccc(C(=O)O)c1)C(=O)O)[C@H]1CC[C@H]2[C@@H]3[C@H](O)C[C@H]4C[C@H](O)CC[C@]4(C)[C@H]3CC[C@]12C", "note": "[Compound 32]", "values": [{"measurement": "Affinity (switch on or off)", "setting": "hASBT [1]; observed affinity of dianions, molecular switch state", "value": "High (on)"}, {"measurement": "fold more potent than 33", "setting": "hASBT [1]", "value": "over 2 fold"}]}, {"molecule": "C[C@H](CCC(=O)N[C@@H](CCC(=O)Nc1ccccc1C(=O)O)C(=O)O)[C@H]1CC[C@H]2[C@@H]3[C@H](O)C[C@H]4C[C@H](O)CC[C@]4(C)[C@H]3CC[C@]12C", "note": "[Compound 31]", "values": [{"measurement": "fold more potent than 33", "setting": "hASBT [1]", "value": "over 2 fold"}]}, {"molecule": "CC(CCC(=O)NC(CCC(=O)Nc1cccc(C(=O)O)c1)C(=O)OOCc1ccccc1)C1CCC2C3C(O)CC4CC(O)CCC4(C)C3CCC12C", "note": "(centres unmarked) [Compound 30]", "values": [{"measurement": "hASBT inhibition potency", "setting": "hASBT [1]; inhibition of taurocholate uptake", "value": "potent inhibitor"}]}, {"molecule": "C[C@H](CCC(=O)N[C@@H](CCC(=O)O)C(=O)O)[C@H]1CC[C@H]2[C@@H]3[C@H](O)C[C@@H]4C[C@H](O)CC[C@]4(C)[C@H]3CC[C@]12C", "note": "[glu-CDCA, Glutamic acid CDCA amide]", "values": [{"measurement": "hASBT activity", "setting": "hASBT [2]", "value": "poor activity"}]}]}
